Assay type in all cases: in vivo, rat
In data set [1] the test system is CIS model rats. Put plainly: Experiment 5: MK-801 in combination with NMDA receptor agonists D-serine or Glycine in CIS model rats. The note with it: 3 times; for reduction in saliva amount by MK-801, compared to group B / resulting saliva amount relative to group A (control): 900 mg/kg oral, 1 hour later MK-801 0.1 mg/kg intraperitoneal; for reduction in saliva amount by MK-801, compared to group B: D-serine p<0.05, glycine p<0.01; for resulting saliva amount relative to group A (control): day 9. How it is done: (§1) Water and feed were limited from 1 hour before the saliva amount measurement.
(§2) As a method for measuring the amount of saliva, a small piece of cotton ball was placed in the mouth of the restrained rat and swabbed for 10 seconds (the saliva was absorbed into the cotton ball). This was repeated three times, and the mass change of the cotton ball was measured. The mass change was measured as the saliva amount collected over a total of 30 seconds.
Experiment 5 was performed on CIS model rats of groups A to D as follows.
• Group A (control): The solvent (5 mL/kg) was orally administered, and then 1 hour later, saline (1 mL/kg) was intraperitoneally administered. This administration was performed for a total of 3 times. • Group B: The solvent (5 mL/kg) was orally administered, and then 1 hour later, MK-801 (0.1 mg/kg) was intraperitoneally administered. This administration was performed for a total of 3 times. • Group C: D-serine (900 mg/kg) was orally administered, and then 1 hour later, MK-801 (0.1 mg/kg) was intraperitoneally administered. This administration was performed for a total of 3 times. • Group D: Glycine (900 mg/kg) was orally administered, and then 1 hour later, MK-801 (0.1 mg/kg) was intraperitoneally administered. This administration was performed for a total of 3 times.
Note that the administration was performed once in the morning and once in the afternoon on day 8 and once in the morning on day 9 for a total of 3 times. The saliva amount was measured 1 hour after the final administration.

Data set [2] concerns CIS model rats. Put plainly: Experiment 4: acute phase effect of MK-801 and SA4503 on clozapine-induced sialorrhea. The following applies: total of 3 times, 1 hour after final administration. How it is done: as §1, §2
The alleviating effect (acute phase effect) on clozapine-induced sialorrhea by a selective NMDA receptor antagonist MK-801 and a selective sigma-1 receptor agonist SA4503 were investigated. Experiment 4 was performed on CIS model rats of groups A to C as follows.
• Group A (control): Intraperitoneal administration of saline (1 mL/kg) for a total of 3 times • Group B: Intraperitoneal administration of MK-801 (0.1 mg/kg) for a total of 3 times • Group C: Intraperitoneal administration of SA4503 (1 mg/kg) for a total of 3 times
Note that the intraperitoneal administration was performed once in the morning and once in the afternoon on day 8 and once in the morning on day 9 for a total of 3 times. The saliva amount was measured 1 hour after the final administration.

Data set [3] relates to male Wister rats. Nature of the data set: Creation of CIS model animals: saliva amount after oral clozapine. The following applies: for saliva amount: 7 days. How it is done: CIS model animals were created with reference to previous studies (Ishikawa S, J. Pharmacol. Exp. Ther., 2020, November; 375(2): 376-384).
As experimental animals, 6 to 8-week-old male Wister rats (made by CLEA Japan, Inc.) were used. The animals were freely ingested and fed on water and normal feed except for the period of time from 1 hour before the saliva amount measurement described below to the measurement.
as §1, §2

In data set [4] the test system is CIS model rats. The following applies: group B, DXM 30 mg/kg/day intraperitoneal on days 8 and 9 after clozapine 100 mg/kg/day days 1-7; p<0.01. How it is done: as §1, §2
In the above Experiment 1, the saliva amount was measured 24 hours after DXM administration. […] The following studies were performed on the acute phase effect of dextromethorphan (DXM) using the above-described CIS model animals (CIS model rats).
Swabs were conducted on a daily basis to accustom the model animals with saliva measurements.
• Group A: Intraperitoneal administration of saline (1 mL/kg) once per day • Group B: Intraperitoneal administration of DXM (30 mg/kg/day) once per day
On Day 9, the saliva amount was measured 1 hour after DXM administration.

Data set [5] has as its system CIS model rats. The following applies: group C. On the procedure:
as §1, §2
The dose and period of administration of the NMDA receptor antagonist dextromethorphan (DXM) were investigated using the above-described CIS model animals (CIS model rats). Experiment 1 was performed on CIS model rats of groups A to C as follows.
The saliva amount was measured before drug administration on day 14 (24 hours after drug administration up to day 13).

For data set [6], the system named is CIS model rats. The note with it: for change in saliva amount from day 7 to day 9 (1 hour after administration): total of 3 times. How it is done:
as §1, §2
The dose of dextromethorphan (DXM) was changed to examine the dose-dependency of clozapine-induced sialorrhea suppression effect.
The following studies were performed on the dose-dependency of the acute phase effect of DXM using the above-described CIS model animals (CIS model rats).
Note that swabs were performed on days 5 and 6 to accustom the model animals with the saliva measurement.
• Group A: Intraperitoneal administration of saline (1 mL/kg) for a total of 3 times • Group B: Intraperitoneal administration of saline (1 mL/kg) for a total of 3 times • Group C: Intraperitoneal administration of DXM (3 mg/kg) for a total of 3 times • Group D: Intraperitoneal administration of DXM (30 mg/kg) for a total of 3 times • Group E: Intraperitoneal administration of DXM (60 mg/kg) for a total of 3 times
The agent of the above dose was administered once in the morning and once in the afternoon on day 8 and once in the morning on day 9 for a total of 3 times. The saliva amount was measured 1 hour after the final administration.

Where two headings read alike, the source gives them in different places.

With `N[C@H](CO)C(=O)O` [D-serine], in data set [1], the “reduction in saliva amount by MK-801, compared to group B” value is on record as “significantly antagonized” and the “resulting saliva amount relative to group A (control)” value is “same level as that in group A”.

As for `C[C@]12N[C@H](Cc3ccccc31)c1ccccc12` [MK-801, dizocilpine (MK-801)], the “saliva amount on day 9 compared to group A (control)” value in data set [1] (group B, solvent oral then MK-801 0.1 mg/kg intraperitoneal, p<0.05) was “significantly reduced”; in data set [2] (group B, MK-801 0.1 mg/kg intraperitoneal, p<0.01), “significantly reduced”.

As to `COc1ccc(CCN2CCN(CCCc3ccccc3)CC2)cc1OC` [SA4503], the “saliva amount on day 9 compared to group A (control)” value in data set [2] (group C, SA4503 1 mg/kg intraperitoneal, p<0.05) was “significantly reduced”.

In the case of `CN1CCN(C2=Nc3cc(Cl)ccc3Nc3ccccc32)CC1` [clozapine], the saliva amount result in data set [3] (25 mg/kg/day orally once per day) is “did not increase”; in data set [3] (50 mg/kg/day orally once per day, from day 3 of administration), “increased significantly”; in data set [3] (100 mg/kg/day orally once per day, from day 3 of administration), “increased significantly”. Moreover, the “amount of saliva secretion” value in data set [3] (single oral dose of 25, 50 or 100 mg/kg/day, measured 4 times per day, every 6 hours from 1 hour after administration) is given as “no increase in the amount of saliva secretion was observed”.

Consider `COc1ccc2c(c1)[C@]13CCCC[C@@H]1[C@H](C2)N(C)CC3` [dextromethorphan], for which the “saliva amount at 1 hour after administration on day 9” value in data set [4] is listed as “significantly reduced”. Moreover, the “change in saliva amount on day 14 based on the saliva amount on day 7” value in data set [5] (DXM 30 mg/kg/day intraperitoneal + clozapine, compared to groups A and B, p<0.01) is “significantly reduced”. Besides, the “saliva amount on day 14” value in data set [5] (DXM 30 mg/kg/day intraperitoneal on days 8 to 13 in addition to clozapine 100 mg/kg/day, 24 hours after administration) was “reduction of saliva amount was observed”. For the same molecule, the “change in saliva amount from day 7 to day 9, group E compared to group C” value in data set [6] (DXM 60 mg/kg compared to DXM 3 mg/kg, intraperitoneal, 3 times, p<0.01) is given as “significantly reduced”. Also, in data set [6] (DXM 3, 30, 60 mg/kg intraperitoneal), the “dose-dependency of clozapine-induced sialorrhea suppression effect” value is on record as “dose-dependent”. Moreover, the “change in saliva amount from day 7 to day 9 (1 hour after administration)” value in data set [6] (group D, DXM 30 mg/kg intraperitoneal, p<0.05) is listed as “significantly reduced”; in data set [6] (group E, DXM 60 mg/kg intraperitoneal, p<0.001) it was “significantly reduced”.

As for `NCC(=O)O` [glycine, Glycine], in data set [1], the “reduction in saliva amount by MK-801, compared to group B” value is “significantly antagonized” and the “resulting saliva amount relative to group A (control)” value was “same level as that in group A”.

The record behind these values is patent publication US20260174748A1, “AGENT FOR ALLEVIATING CLOZAPINE-INDUCED SIALORRHEA” (National University Corporation Chiba University, priority 2022, published 2026).
